Test results: patent US7173018B2, “Phospholipid derivatives of non-steroidal anti-inflammatory drugs” (D-Pharm, Ltd., priority 1998, dated 2007)

Columns and labels:
[1] = tested on: Carrageenan-induced rat paw edema; assay: Carrageenan-induced rat paw edema (anti-inflammatory efficacy); assay type: in vivo; details: rats, 3, 5 and 7 hours post-carrageenan, p<0.05, FIG. 3
Procedure: Efficacy of DP-DFC lipid derivatives was tested in vivo in the model system of rodent carrageenan edema test.
Carrageenan-induced rat paw edema is a widely employed animal model for acute inflammation. The objective of the study is to assess the potential prophylactic effects of DP-DCF derivatives on the prevention of inflammatory swelling and, in particular, to compare the efficacy parameters with those obtained for diclofenac. The experimental set-up was as follows: Male Sprague-Dawley rats weighing 120–180 g (supplied by Harlan Laboratories Breeding Center, Israel) were intraperitoneally (i.p.) injected with drug or prodrug one hour prior to the induction of inflammation with carrageenan. Animals injected with vehicle alone served as control group.
Paw edema was induced by a single sub-plantar injection of 0.1 ml 2% carrageenan in physiological saline, into test animals' right hind paws. Just prior to paw edema induction, the paw thickness of the test animals' right hind paws was measured in triplicate using a plethysmograph and micrometer to provide a baseline. At 3, 5 and 7 hours post carrageenan injection, the right paw thickness was measured in the same manner as before.
Potential anti-inflammatory activity in suppressing carrageenan-induced paw oedema was assessed by the relative differences in paw volumes between pre- and post-carrageenan measurements, expressed as (%) change. […]

[2] = tested on: global forebrain ischemia; assay: Global forebrain ischemia model, serum neuron specific enolase (NSE); assay type: in vivo, Mongolian gerbils; details: gerbils
Procedure: Neuroprotective effects of compounds of the invention were examined in the global forebrain ischemic model system in Mongolian gerbils.
Male Mongolian gerbils 60–70 g (Charles River Laboratories, USA) were used in this study. Global forebrain ischemia was induced by transient occlusion of both carotid arteries for 10 minutes, using arterial clips. The tested compounds were orally administered to the animals, 7–8 animals per group, by either one of two schemes: • a) single dose administration of commercial diclofenac (Sigma, USA; 10 mg/kg) or dose-equivalent of DP-DCF; Z=5 (30 mg/kg). The administration was per os (p.o.) two hours before induction of ischemia (FIG. 4); • b) multiple dosing of DP-DCF; Z=5 (30 mg/kg) orally administered daily for 5 days beginning four days prior to induction of ischemia. (FIG. 5).
In both schemes, animals treated with vehicle alone served as control groups. Blood samples were withdrawn from eye sinuses of the animals 24 hours after the onset of ischemia and serum levels of neuron specific enolase (NSE) were determined by radioimmunoassay using NSE kit (Pharmatope Ltd., Israel).
It has been shown that serum levels of NSE are elevated in the event of ischemic insult. Thus, serum level of NSE may serve as a marker for the degree of neuronal damage (Barone et al. (1993) Brain Res. 623: 77–82).

[3] = In vivo sub-chronic toxicity study: body weight changes; design: species or system rat; details: rats, 10 mg/kg p.o. gavage daily for 14 days; FIG. 1
Procedure: DP-DCF compounds were evaluated for sub-chronic toxicity during 14-day drug administration period by following two criteria: a) monitoring body weight changes, and b) evaluating gastro-toxicity scores.
Male Sprague-Dawley rats weighing 250–280 g were kept under standard conditions for an acclimatization period of one week with food and water supplied ad lib. The rats were administered with commercial diclofenac (DCF; Sigma, USA) or with equivalent doses of 1-Stearoyl-2-{4-[2-(2,6-dichloroanilino)-phenylacetamido]butanoyl}-sn-glycero-3-phosphocholine (DP-DCF; Z=3) or 1-Stearoyl-2-{6-[2-(2,6-dichloroanilino)-phenylacetamido]hexanoyl}-sn-glycero-3-phosphocholine (DP-DCF; Z=5), p.o. by gavage daily for 14 days. Animals treated with the vehicle solution alone serve as control group.
The treatment groups were as follows:
A major sign of general toxicity is decreasing of body weight. Male Sabra rats were treated as described above. The rats were weighed prior to dosing at the beginning of the experiment (day zero) and at the 5th, 9th and 13th day of the treatment.

[4] = In vivo sub-chronic toxicity study: gastro-toxicity scores; design: species or system rat; details: rats, 10 mg/kg p.o. daily, day 14; scores 0 (no visible lesions) to 5 (perforation); FIG. 2
Procedure: Male Sprague-Dawley rats weighing 250–280 g were kept under standard conditions for an acclimatization period of one week with food and water supplied ad lib. […] Animals treated with the vehicle solution alone serve as control group.
Toxicity scores were assessed at the end of the 14-day multiple p.o drug administration period. On day 14, the animals were anesthetized 4 hours after administration of the test materials by i.p. injection of 0.5 ml pentobarbitone sodium (200 mg/ml) and laparatomy was preformed to remove the rat's stomach with approximately 15 mm of the associated duodenum. The stomachs were cut open along the small curvature and washed, with gentle rubbing, under running water. A semi-quantitative assessment of the gastric damage was determined by assigning scores ranging from 0 to 5. The scores indicate as follows: (0) No macroscopically visible lesions; (1) Hyperemia; (2) One-two slight lesions; (3) More than 2 slight lesions; (4) Severe lesions; (5) Perforation.

| Compound | Anti-inflammatory activity: suppression of carrageenan-induced increase of paw volume ([1]; 30 mg/kg i.p. one hour prior to carrageenan) | Serum NSE level 24 hours after ischemia ([2]; 30 mg/kg orally daily for 5 days beginning four days prior to ischemia, p<0.05, FIG. 5) | Serum NSE level 24 hours after ischemia ([2]; single dose 30 mg/kg p.o. two hours before ischemia, FIG. 4) | Body weight changes (%) [3] | Gastro-toxicity score [4] | Anti-inflammatory activity: suppression of carrageenan-induced increase of paw volume ([1]; 10 mg/kg i.p. one hour prior to carrageenan) |
| --- | --- | --- | --- | --- | --- | --- |
| 1-Stearoyl-2-{6-[2-(2,6-dichloroanilino)phenylacetamido]hexanoy}-sn-glycero-3-phosphocholine [DCF n=5] | statistically significant and consistent anti-inflammatory activity | significant reduction in NSE level | reduced in comparison to NSE level in serum of animals that were treated with DCF or vehicle alone | – | – | – |
| O=C(O)Cc1ccccc1Nc1c(Cl)cccc1Cl [DCF, [o-(2,6-dichloroanilino)phenyl]acetic acid] | – | – | – | maximal decrease of body weight on day 5 | 4 | statistically significant and consistent anti-inflammatory activity |
